Experimental data from patent US10947574B2, “Method for producing fermented carotenoid using carotenoid-producing bacteria obtained by using cobalt-containing culturing medium” (ENEOS CORPORATION, priority 2015, dated 2021).

System: Paracoccus carotinifaciens strain E-396 (FERM BP-4283)
Format: cell-based
Conditions: each trace metal added singly at final concentration of Table 1; shaking at 28° C. for 4 days
Procedure: Subsequently, a medium of the following composition (glucose 30 g/L, filtered corn steep liquor 30 g/L, ammonium sulfate 1.5 g/L, potassium dihydrogen phosphate 1.5 g/L, disodium hydrogen phosphate dodecahydrate 3.8 g/L, calcium chloride dihydrate 5.0 g/L, magnesium sulfate heptahydrate 0.7 g/L, iron sulfate heptahydrate 1.0 g/L, silicon-based defoaming agent 0.2 g/L) was dispensed in 7.2 ml volumes into cotton-plugged test tubes having an inner diameter of 18 mm to prepare 13 test tubes containing a test tube medium for production. The ingredients used to prepare the test tube medium for production were obtained from lots where microbial cells had been confirmed not to grow well.
The 12 trace metals indicated in Table 1 were separately prepared in 0.8 ml volumes to have their final concentrations indicated in Table 1 and then added to the above 12 test tubes for production, respectively. The remaining one test tube was supplemented with 0.8 ml of ion exchanged water.
The resulting culture solution was then inoculated in 0.05 ml volumes into the 13 types of test tube media for production and cultured under shaking at 28° C. for 4 days at 300 spm.

Compound | OD610
OB(O)O [Boric acid] | 4
O.O.O.O.O.O.[Cl][Cr]([Cl])[Cl] [Chromium (III) chloride hexahydrate] | 3
[I-].[K+] [Potassium iodide] | 4
O.O.[Na+].[Na+].[O]=[Mo](=[O])([O-])[O-] [Sodium molybdate dihydrate] | 4
O=[Se](=O)(O)O [Sodium selenate] | 3
[Na+].[Na+].[O]=[W](=[O])([O-])[O-] [Sodium tungstate] | 4
